In patent publication US20180271863A1, “TARGETING P2 PURINERGIC RECEPTORS TO TREAT HEPATOCELLULAR CARCINOMA (HCC)” (Baylor College of Medicine, priority 2015, published 2018):

Legend:
Format in all cases: cell-based, human
Huh7 cells [1] = test: qRT-PCR of cyclin mRNA in Huh7 cells; details: 6 h treatment
Experimental: Normal human primary hepatocytes isolated from healthy adults (no known history of HCC) in suspension or freshly-frozen prior to shipment (Cryoport Systems, CA) were purchased from Triangle Research Labs, NC. Fresh hepatocytes were plated on collagen-coated tissue culture plates or glass coverslips in Williams E complete media with additives (10% fetal bovine serum, 2 mM glutamine, […] insulin, 4 ng/ml glucagon, […] transferrin, 2.5 ng/ml sodium selenite, 10,000 U/ml penicillin, […] streptomycin, 50 g/ml gentamycin) for 3 h to ensure hepatocyte adherence to plates. Subsequently, hepatocytes were maintained in Williams E minimal media free from serum and growth factors for 24 h prior to treatment. Human hepatocellular carcinoma derived Huh7, and Hep3B, were cultured in Minimum Essential Medium Eagle (MEM); SNU-387 was cultured in Roswell Park Memorial Institute (RPMI) medium and PLC/PRF/5 cultured in Dulbecco's Modified Eagle's medium (DMEM). All maintenance culture media were supplemented with 10% fetal bovine serum (FBS), L-Glutamine (2 mM), penicillin (100 units/ml) and streptomycin ([…]) at 37° C. and 5% CO2. Cells were maintained in serum free media (containing 2 mM L-Glutamine, 100 units/ml penicillin and ([…])) streptomycin for 24 h prior to treatment. Total RNA was isolated from human livers or cells using Trizol Reagent according to manufacturer's instructions (Invitrogen, NY). Complementary DNA (cDNA) synthesis was performed by reverse transcription of total RNA (2 μg) with high capacity cDNA reverse transcription kit (Applied Biosystems, Foster city, CA). The cDNA product was amplified by qRT-PCR in Step One Plus Real-Time PCR system using SYBR Green PCR Master Mix (Applied Biosystems, Grand Island, N.Y.). Quantitative expression values were determined using the […] as specified by manufacturers using GAPDH as a control.

Huh7 cells [2] = test: MTT assay of cell proliferation and viability, Huh7; details: ATP 100 μM, 18 h
Experimental: (§1) Normal human primary hepatocytes isolated from healthy adults (no known history of HCC) in suspension or freshly-frozen prior to shipment (Cryoport Systems, CA) were purchased from Triangle Research Labs, NC. Fresh hepatocytes were plated on collagen-coated tissue culture plates or glass coverslips in Williams E complete media with additives (10% fetal bovine serum, 2 mM glutamine, […] insulin, 4 ng/ml glucagon, […] transferrin, 2.5 ng/ml sodium selenite, 10,000 U/ml penicillin, […] streptomycin, 50 g/ml gentamycin) for 3 h to ensure hepatocyte adherence to plates. Subsequently, hepatocytes were maintained in Williams E minimal media free from serum and growth factors for 24 h prior to treatment. Human hepatocellular carcinoma derived Huh7, and Hep3B, were cultured in Minimum Essential Medium Eagle (MEM); SNU-387 was cultured in Roswell Park Memorial Institute (RPMI) medium and PLC/PRF/5 cultured in Dulbecco's Modified Eagle's medium (DMEM). All maintenance culture media were supplemented with 10% fetal bovine serum (FBS), L-Glutamine (2 mM), penicillin (100 units/ml) and streptomycin ([…]) at 37° C. and 5% CO2. […]
(§2) Cell viability was determined using the 3-(4, 5-dimethylthiazol-2-yl)-2,5-diphenyltetrazolium (MTT, Sigma) assays. […] After shaking the plates for 30 min, the absorbance at 570 nm was measured (background subtraction at […]).

SNU-387 cells = test: MTT assay of cell proliferation and viability, SNU-387; details: ATP 100 μM, 18 h
Experimental: as §1, §2

PLC/PRF/5 cells [3] = test: MTT assay of cell proliferation and viability, PLC/PRF/5; details: ATP 100 μM, 18 h
Experimental: as §1, §2

PLC/PRF/5 cells [4] = test: Western blotting of cyclin D3 in PLC/PRF/5 cells; details: ATP 24 hours, serum-free
Experimental: HCC cells (Huh7, Hep3B, SNU-387, and PLC/PRF/5) maintained in serum-free conditions were treated with ATP for 24 hours and total protein extracts were analyzed by Western blotting for cyclin D3 expression. The α-tubulin was utilized as the protein loading control. Data represents mean±SD, n=3-6, *p<0.05 vs untreated (un).
Normal human primary hepatocytes isolated from healthy adults (no known history of HCC) in suspension or freshly-frozen prior to shipment (Cryoport Systems, CA) were purchased from Triangle Research Labs, NC. […]
Total protein extracts were obtained by homogenizing cells in total lysis buffer (50 mM Tris-HCl, pH 7.5, 0.5 M NaCl, 2 mM EGTA, 2 mM EDTA, 1.0% Triton X-100, 0.25% Deoxycholate, 1 m/ml pepstatin, 1.0 m/ml leupeptin, 1.0 m/ml aprotinin, 1.0 mM phenylmethylsulfonyl fluoride, 1.0 mM Dithiothreitol, 2.0 mM activated Na3VO4, and 2.0 mM NaF) and centrifuging at 14,000 rpm for 10 min (4° C.). Equal amounts of total proteins as determined by BCA protein Assay (Pierce, Rockford, Ill.) were analyzed by Western blotting. […]

SMILES	Cyclin D3 mRNA expression vs untreated cells (Huh7 cells [1]) [fold]	increase in cell proliferation and viability (MTT) (Huh7 cells [2]) [%]	increase in cell proliferation and viability (MTT) (SNU-387 cells) [%]	increase in cell proliferation and viability (MTT) (PLC/PRF/5 cells [3]) [%]	cyclin D3 protein expression (PLC/PRF/5 cells [4]) [fold]
Nc1ncnc2c1ncn2[C@@H]1O[C@H](COP(=O)(O)OP(=O)(O)OP(O)(O)=S)[C@@H](O)[C@H]1O [ATPγS]	2.1				
Nc1ncnc2c1ncn2[C@@H]1O[C@H](COP(=O)(O)OP(=O)(O)OP(=O)(O)O)[C@@H](O)[C@H]1O [ATP]		65	90	43	1.4
